Earlier results as cited in patent US7022337B2 (Shire Laboratories, Inc., priority 2002, dated 2006).

Details: prolonged treatment, 300 to 400 mg per day

Which “Reduction in the levels of triglycerides” value does the source give for `CC(C)OC(=O)C(C)(C)Oc1ccc(C(=O)c2ccc(Cl)cc2)cc1` [Fenofibrate, 2-[4-(4-Chlorobenzoyl)phenoxy]-2-methylpropanoic acid 1-methylethyl ester] here?
The value was 40 to 50%.

And the “Reduction in total cholesterol” value?
The value was 20 to 25%.
